Measured values published in US20200339544A1 (JOINT STOCK COMPANY "BIOCAD", priority 2017, published 2020).
Where a name gives a salt, the structure may show the parent alone.

Assays:
WT EGFR (Wild-Type EGFR) = target: T1, WT EGFR (Wild-Type EGFR) (Homo sapiens, UniProt P00533); assay: Inhibition of WT EGFR kinase activity (ADP-Glo); type: biochemical
T1 construct: purchased SignalChem
Method in brief: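 Luminescent ADP-Glo readout was used for both wild-type and L858R/T790M EGFR, each run 180 minutes at 37° C. Reactions used a solution of 50 μM ATP with 0.5 mg/mL peptide substrate. Four-parameter logistic curves gave IC50.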

[1] = test system: HCC827 (lung adenocarcinoma, SM, exon19delE746-A750); assay: Antiproliferative activity on HCC827 cells (Alamar Blue); type: cell-based; details: Homo sapiens, antiproliferative test
Method in brief: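 HCC827 cells (EGFR exon19del E746-A750), 10×10^3/well, attached 16–18 h, then exposed to compounds for 72 h at 37 °C in RPMI-1640 with 2% FBS, ≤1% DMSO. Viability by Alamar Blue fluorescence (ex 540/em 590 nm) after 3–5 h; IC50 by four-parameter logistic fit.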

[2] = Chemical stability in human blood plasma; type: in vitro ADME; details: pooled human blood plasma; 10 μm; 4 hours at 37° C.; substance amount remaining
Method in brief: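 Percent of parent remaining was derived by comparing HPLC peak areas at time zero and after 4 h at 37 °C. Test compound was at 10 μM in human plasma pooled from ten donors, and proteins were precipitated with acetonitrile before analysis.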

[3] = General cytotoxicity on HepG2 cells; type: cell-based; details: human; general cytotoxicity, HepG2 cells, 72 hours, average of several tests
Method in brief: (§1)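 HepG2 cells seeded at 2*10^4 cells per well and compounds added in DMEM with 2% FBS for 72 h at 37 °C. Viability read with Alamar Blue and CC50 derived as for IC50. Therapeutic index taken as HepG2 CC50 over H1975 IC50.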

HepG2 cells = assay: General cytotoxicity on HepG2 cells; type: cell-based; details: therapeutic index, CC50 HepG2 / IC50 H1975
Method in brief: as §1

[4] = Enzyme stability in human liver S9 fractions; type: in vitro ADME; details: 0.5 mg/mL pooled human liver S9 fractions; 10 μM compound; 37° C.; pH 7.4; read-out: Stability in liver S9 fractions, Clint
Method in brief: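 Compound at 10 μM was incubated at 37 °C with 0.5 mg/mL pooled human liver S9, 2 mM β-NAD and 4 mM MgCl2 in 0.1 M sodium phosphate, pH 7.4, then quenched with acetonitrile and analysed chromatographically. T½ and CLint were derived from the slope of log peak area versus time.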

T1 sequence (P00533 25-1210): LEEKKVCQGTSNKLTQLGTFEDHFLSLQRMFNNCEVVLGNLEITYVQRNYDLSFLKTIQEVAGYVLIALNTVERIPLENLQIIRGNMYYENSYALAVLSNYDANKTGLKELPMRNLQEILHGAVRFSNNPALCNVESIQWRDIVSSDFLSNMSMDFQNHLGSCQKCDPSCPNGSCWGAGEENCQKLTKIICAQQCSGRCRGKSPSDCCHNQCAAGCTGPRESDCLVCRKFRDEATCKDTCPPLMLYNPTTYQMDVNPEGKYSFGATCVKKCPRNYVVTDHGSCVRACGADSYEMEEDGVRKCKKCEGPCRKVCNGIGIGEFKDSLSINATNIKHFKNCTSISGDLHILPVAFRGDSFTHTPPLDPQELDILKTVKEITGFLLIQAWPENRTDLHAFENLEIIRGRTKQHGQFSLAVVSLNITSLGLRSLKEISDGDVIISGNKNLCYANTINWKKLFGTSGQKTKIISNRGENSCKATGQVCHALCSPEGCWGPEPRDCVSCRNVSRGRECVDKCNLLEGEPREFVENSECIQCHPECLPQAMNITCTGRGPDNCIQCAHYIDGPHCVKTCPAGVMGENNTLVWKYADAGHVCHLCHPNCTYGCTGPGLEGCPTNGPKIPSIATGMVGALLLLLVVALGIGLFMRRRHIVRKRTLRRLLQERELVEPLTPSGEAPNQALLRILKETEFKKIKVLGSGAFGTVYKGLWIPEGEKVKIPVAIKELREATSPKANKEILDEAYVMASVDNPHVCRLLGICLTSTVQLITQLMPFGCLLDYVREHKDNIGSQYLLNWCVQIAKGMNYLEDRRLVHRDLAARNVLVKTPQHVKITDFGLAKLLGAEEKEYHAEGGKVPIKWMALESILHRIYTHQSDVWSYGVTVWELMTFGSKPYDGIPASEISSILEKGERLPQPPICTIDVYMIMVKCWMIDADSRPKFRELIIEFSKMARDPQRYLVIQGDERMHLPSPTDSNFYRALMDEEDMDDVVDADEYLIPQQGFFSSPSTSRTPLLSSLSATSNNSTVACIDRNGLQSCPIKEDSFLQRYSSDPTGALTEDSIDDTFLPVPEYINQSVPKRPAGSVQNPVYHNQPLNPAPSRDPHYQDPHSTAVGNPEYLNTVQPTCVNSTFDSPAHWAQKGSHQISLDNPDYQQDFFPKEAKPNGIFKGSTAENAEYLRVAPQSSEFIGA

Structure (SMILES) | IC50 (WT EGFR (Wild-Type EGFR)) | IC50 [1] | Stability in blood plasma, % [2] | Intrinsic clearance in human liver S9 fractions at 10 µM [4] | CC50 at 72 h [3] | TI, CC50/IC50 (HepG2 cells)
C=CC(=O)Nc1cc(Nc2cc(C(=O)c3ccc(N4CC(OC)C4)cc3)ccn2)c(OC)cc1N(C)CCN(C)C (racemic) [EGFR_3365_53, N-(2-((2-(dimethylamino)ethyl)(methyl)amino)-4-methoxy-5-((4-(4-(3-methoxyazetidin-1-yl)benzoyl)pyridin-2-yl)amino)phenyl)acrylamide] | 183 nM | 26.6 nM | 91.8% | 10.1 µL/min/mg | 20600 nM | 457
C=CC(=O)Nc1cc(Nc2nccc(C(=O)c3ccc(OCCCC)cc3)n2)c(OC)cc1N(C)CCN(C)C [EGFR_3365_66, N-(5-((4-(4-butoxybenzoyl)pyrimidin-2-yl)amino)-2-((2-(dimethylamino)ethyl)(methyl)amino)-4-methoxyphenyl)acrylamide] | 46.8 nM | 12.8 nM | 97.0% | 1.3 µL/min/mg | 9640 nM | 278
C=CC(=O)Nc1cc(Nc2nccc(C(=O)c3ccc(OCCC)cc3OCCC)n2)c(OC)cc1N(C)CCN(C)C [EGFR_3365_70, N-(2-((2-(dimethylamino)ethyl)(methyl)amino)-5-((4-(2,4-dipropoxybenzoyl)pyrimidin-2-yl)amino)-4-methoxyphenyl)acrylamide] | 250 nM | 36.8 nM | 90.0% | 0.7 µL/min/mg | 11500 nM | 56
C=CC(=O)Nc1cc(Nc2nccc(C(=O)c3ccccc3C(F)(F)F)n2)c(OC)cc1N(C)CCN(C)C [EGFR_3365, N-(2-((2-(dimethylamino)ethyl) (methyl)amino)-4-methoxy-5-((4-(2-(trifluoromethyl)benzoyl)pyrimidin-2-yl)amino)phenyl)acrylamide] | 587 nM | 14.3 nM | 90.3% | 13.6 µL/min/mg | 25400 nM | 423
C=CC(=O)Nc1cc(Nc2nccc(C(=O)c3ccc(N4CCN(C)CC4)cc3)n2)c(OC)cc1N(C)CCN(C)C [EGFR_3365_62, N-(2-((2-(dimethylamino)ethyl)(methyl)amino)-4-methoxy-5-((4-(4-(4-methylpiperazin-1-yl)benzoyl)pyrimidin-2-yl)amino)phenyl)acrylamide formate] | 127 nM | 12.1 nM | 98.4% | 3.7 µL/min/mg | 31100 nM | 512
C=CC(=O)Nc1cc(Nc2nccc(C(=O)c3ccc(F)cc3)n2)c(OC)cc1N(C)CCN(C)C [EGFR_3365_10, N-(2-((2-(dimethylamino)ethyl)(methyl)amino)-5-((4-(4-fluorobenzoyl)pyrimidin-2-yl)amino)-4-methoxyphenyl) acrylamide] | 211 nM | 5.9 nM | 94.2% | 6.8 µL/min/mg | 30400 nM | 144
C=CC(=O)Nc1cc(Nc2nccc(C(=O)c3ccc(OCc4ccccc4)cc3)n2)c(OC)cc1N(C)CCN(C)C [EGFR_3365_16, N-(5-((4-(4-(benzyloxy)benzoyl)pyrimidin-2-yl)amino)-2-((2-(dimethylamino)ethyl)(methyl)amino)-4-methoxyphenyl)acrylamide] | 154 nM | 10 nM | 83.5% | 17.9 µL/min/mg | 5790 nM | 108

More lines, in order of falling IC50 (WT EGFR (Wild-Type EGFR)), values ahead:

IC50 (WT EGFR (Wild-Type EGFR)) | IC50 [1] | Stability in blood plasma, % [2] | Intrinsic clearance in human liver S9 fractions at 10 µM [4] | Structure (SMILES) | CC50 at 72 h [3] | TI, CC50/IC50 (HepG2 cells)
60 nM | 18 nM | 100.0% | 17.8 µL/min/mg | C=CC(=O)Nc1cc(Nc2cc(C(=O)c3ccc(-c4cnn(C)c4)cc3)ccn2)c(OC)cc1N(C)CCN(C)C [EGFR_3365_85, N-(2-((2-(dimethylamino)ethyl)(methyl)amino)-4-methoxy-5-((4-(4-(1-methyl-1H-pyrazol-4-yl)benzoyl)pyridin-2-yl)amino)phenyl) acrylamide] | 21200 nM | 153
55.9 nM | 13.5 nM | 94.6% | 20.2 µL/min/mg | C=CC(=O)Nc1cc(Nc2nccc(C(=O)c3ccc(N(CC)CC)cc3)n2)c(OC)cc1N(C)CCN(C)C [EGFR_3365_72, N-(5-((4-(4-(diethylamino)benzoyl)pyrimidin-2-yl)amino)-2-((2-(dimethylamino)ethyl)(methyl)amino)-4-methoxyphenyl)acrylamide] | 16200 nM | 1408
53.1 nM | 5.77 nM | 91.8% | 12.8 µL/min/mg | C=CC(=O)Nc1cc(Nc2nccc(C(=O)c3ccc(N4CC(OC)C4)cc3)n2)c(OC)cc1N(C)CCN(C)C [EGFR_3365_61, N-(2-((2-(dimethylamino)ethyl)(methyl)amino)-4-methoxy-5-((4-(4-(3-methoxyazetidin-1-yl)benzoyl)pyrimidin-2-yl)amino)phenyl)acrylamide] | 43000 nM | 5296
39.7 nM | 6.23 nM | 99.7% | 17.7 µL/min/mg | C=CC(=O)Nc1cc(Nc2nccc(C(=O)c3ccc(N4CCC4)cc3)n2)c(OC)cc1N(C)CCN(C)C [EGFR_3365_58, N-(5-((4-(4-(azetidin-1-yl)benzoyl)pyrimidin-2-yl)amino)-2-((2-(dimethylamino)ethyl)(methyl)amino)-4-methoxyphenyl)acrylamide] | 44400 nM | 4241
32.7 nM | 4.47 nM | 90.5% | 11.1 µL/min/mg | C=CC(=O)Nc1cc(Nc2nccc(C(=O)c3ccc(N(C)C)cc3)n2)c(OC)cc1N(C)CCN(C)C [EGFR_3365_73, N-(5-((4-(4-(dimethylamino)benzoyl)pyrimidin-2-yl)amino)-2-((2-(dimethylamino)ethyl) (methyl)amino)-4-methoxyphenyl)acrylamide] | 35600 nM | 3465
32.3 nM | 4.39 nM | 98.1% | 23.1 µL/min/mg | C=CC(=O)Nc1cc(Nc2nccc(C(=O)c3ccc(N4CCCCC4)cc3)n2)c(OC)cc1N(C)CCN(C)C [EGFR_3365_90, N-(2-((2-(dimethylamino)ethyl)(methyl)amino)-4-methoxy-5-((4-(4-(piperidin-1-yl)benzoyl)pyrimidin-2-yl)amino)phenyl)acrylamide] | 12800 nM | 1689
22.9 nM | 4.27 nM | 100.0% | 15.6 µL/min/mg | C=CC(=O)Nc1cc(Nc2nccc(C(=O)c3ccc(N4CCCC4)cc3)n2)c(OC)cc1N(C)CCN(C)C [EGFR_3365_63, N-(2-((2-(dimethylamino)ethyl)(methyl)amino)-4-methoxy-5-((4-(4-(pyrrolidin-1-yl)benzoyl)pyrimidin-2-yl)amino)phenyl)acrylamide] | 13000 nM | 2239
